Reference: patent US20090137572A1, “2-substituted-4-heteroaryl-pyrimidines useful for the treatment of proliferative disorders” (priority 2004, published 2009)
Like-named read-outs stand apart in the source and are kept apart here.

Key:
Assay type in all cases: biochemical
CDK1-cyclin B = CDK1-cyclin B (Homo sapiens, UniProt P06493); test: Kinase assay (radioactive phosphate incorporation), CDK1-cyclin B; settings: read-out: Kinase Inhibition pIC50 CDK1-cyclin B (converted)
Procedure, shortened: (§1)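 Radiometric filter-binding format: recombinant kinase + substrate, pH 7.4 MOPS buffer with EGTA, DTT, vanadate; 100 μM ATP/[γ-32P]-ATP, 15 mM MgCl2; 30° C; stopped on ice, P81 or GF/C filtration, scintillation read.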

[1] = target: T1, protein kinases (panel of Table 4); test: Kinase selectivity profile, kinase inhibition IC50 (Table 4), ATP 100 μM; settings: kinase CaMKII
T1 construct: other: kinase CaMKII; ATP 100 μM
Experimental: (§2) For the assays shown in Table 3, the kinases were assayed at the following ATP concentrations: SAPK4, PKBΔph, GSK3b, SAPK3, CK2, MKK1, PIM2, IKKB, ERK8, and PRK2 at 5 μM; JNK, PRAK, ROCK-II, SAPK2b, CDK2, CHK1, MSK1, CSK, P70S6K, PKA, CK1, MAPKAP-K2, SGK, PKCa, PDK1, NEK 7, and MAPKAP-K3 at 20 μM; SAPK2a, LCK, AMPK, MAPK2, DYRK1a, MAPKAP-K1a, NEK-6, NEK2a, PBK, CAMK-1, SRPK-1, JNK3, MNK2, RSK2, MNK1, PKBB, and SmMLCK at 50 μM. For the assays in Table 4 the ATP concentration was 100 μM throughout.

[2] = target: T2, protein kinases (panel of Table 4) (Homo sapiens, UniProt P35968); test: as above; settings: kinase VEGFR2
T2 construct: other: kinase VEGFR2; ATP 100 μM
T2 sequence (P35968 whole entry): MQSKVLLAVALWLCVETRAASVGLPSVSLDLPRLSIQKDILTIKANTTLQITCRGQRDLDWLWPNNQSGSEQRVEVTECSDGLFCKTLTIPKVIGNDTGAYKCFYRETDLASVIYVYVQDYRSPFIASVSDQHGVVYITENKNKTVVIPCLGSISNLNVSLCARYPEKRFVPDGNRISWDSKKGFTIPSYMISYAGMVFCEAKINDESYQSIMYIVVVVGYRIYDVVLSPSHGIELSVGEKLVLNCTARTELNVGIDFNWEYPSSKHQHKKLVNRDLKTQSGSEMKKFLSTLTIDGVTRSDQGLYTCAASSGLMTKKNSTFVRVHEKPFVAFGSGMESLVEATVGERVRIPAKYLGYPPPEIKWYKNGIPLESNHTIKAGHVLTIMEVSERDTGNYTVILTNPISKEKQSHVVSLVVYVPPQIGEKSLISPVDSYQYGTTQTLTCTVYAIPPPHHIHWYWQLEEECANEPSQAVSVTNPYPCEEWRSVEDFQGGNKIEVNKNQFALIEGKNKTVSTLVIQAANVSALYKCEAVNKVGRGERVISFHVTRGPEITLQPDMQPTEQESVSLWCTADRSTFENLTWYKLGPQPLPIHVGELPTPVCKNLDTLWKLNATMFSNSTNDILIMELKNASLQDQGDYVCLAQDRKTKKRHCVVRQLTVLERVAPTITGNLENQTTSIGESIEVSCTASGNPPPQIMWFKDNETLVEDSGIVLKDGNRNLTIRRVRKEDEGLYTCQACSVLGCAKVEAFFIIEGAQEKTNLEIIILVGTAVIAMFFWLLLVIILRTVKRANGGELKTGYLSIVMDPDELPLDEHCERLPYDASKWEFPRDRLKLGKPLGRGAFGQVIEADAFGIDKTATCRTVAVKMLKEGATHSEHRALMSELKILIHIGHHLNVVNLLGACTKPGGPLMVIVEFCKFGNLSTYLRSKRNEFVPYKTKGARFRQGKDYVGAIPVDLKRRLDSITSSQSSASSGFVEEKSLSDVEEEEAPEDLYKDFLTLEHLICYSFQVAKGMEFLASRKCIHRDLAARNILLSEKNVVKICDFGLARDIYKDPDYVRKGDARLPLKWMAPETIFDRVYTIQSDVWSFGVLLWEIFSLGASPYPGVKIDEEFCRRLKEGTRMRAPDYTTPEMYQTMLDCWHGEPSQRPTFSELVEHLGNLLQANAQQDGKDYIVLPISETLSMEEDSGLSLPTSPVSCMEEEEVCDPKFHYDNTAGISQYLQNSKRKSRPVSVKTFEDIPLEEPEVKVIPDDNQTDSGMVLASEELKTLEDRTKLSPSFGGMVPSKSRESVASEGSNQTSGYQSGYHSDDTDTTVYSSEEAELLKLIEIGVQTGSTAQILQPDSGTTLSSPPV
Experimental: as §2

[3] = target: T3, protein kinases (panel of Table 4) (Homo sapiens, UniProt P06493); test: as above; settings: kinase CDK1B
T3 construct: other: kinase CDK1B; ATP 100 μM
T3 sequence (P06493 whole entry): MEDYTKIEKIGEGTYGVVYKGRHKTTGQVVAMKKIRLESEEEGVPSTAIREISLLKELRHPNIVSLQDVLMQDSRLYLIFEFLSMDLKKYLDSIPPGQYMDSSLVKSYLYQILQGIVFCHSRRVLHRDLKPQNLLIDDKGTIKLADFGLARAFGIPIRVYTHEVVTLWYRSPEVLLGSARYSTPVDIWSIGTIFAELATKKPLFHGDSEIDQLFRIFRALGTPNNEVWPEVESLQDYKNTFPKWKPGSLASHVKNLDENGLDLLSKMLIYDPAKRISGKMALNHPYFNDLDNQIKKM
Experimental: as §2

[4] = target: T4, protein kinases (panel of Table 4) (Homo sapiens, UniProt Q96GD4); test: as above; settings: kinase Aurora B
T4 construct: other: kinase Aurora B; ATP 100 μM
T4 sequence (Q96GD4 whole entry): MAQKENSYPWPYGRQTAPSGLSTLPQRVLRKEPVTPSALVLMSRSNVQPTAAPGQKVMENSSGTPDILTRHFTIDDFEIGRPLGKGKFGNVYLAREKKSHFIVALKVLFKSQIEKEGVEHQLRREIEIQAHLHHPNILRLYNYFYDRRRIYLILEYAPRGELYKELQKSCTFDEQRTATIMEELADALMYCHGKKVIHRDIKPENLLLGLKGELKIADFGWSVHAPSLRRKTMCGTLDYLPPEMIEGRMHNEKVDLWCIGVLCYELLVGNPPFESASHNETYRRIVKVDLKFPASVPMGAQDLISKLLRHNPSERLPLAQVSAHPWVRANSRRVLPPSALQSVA
Experimental: as §2

[5] = target: T5, protein kinases (panel of Table 4) (Homo sapiens, UniProt P28482); test: as above; settings: kinase ERK2
T5 construct: other: kinase ERK2; ATP 100 μM
T5 sequence (P28482 whole entry): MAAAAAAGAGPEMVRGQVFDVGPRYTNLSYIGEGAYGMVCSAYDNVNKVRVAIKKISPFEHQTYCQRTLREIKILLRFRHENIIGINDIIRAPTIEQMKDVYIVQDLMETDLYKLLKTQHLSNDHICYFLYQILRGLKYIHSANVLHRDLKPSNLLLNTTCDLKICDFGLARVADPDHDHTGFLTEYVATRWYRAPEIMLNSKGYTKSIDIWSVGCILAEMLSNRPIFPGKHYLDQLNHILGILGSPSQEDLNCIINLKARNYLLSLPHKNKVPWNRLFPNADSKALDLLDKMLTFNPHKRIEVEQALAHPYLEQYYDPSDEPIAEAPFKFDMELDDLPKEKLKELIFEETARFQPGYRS
Experimental: as §2

CDK4-cyclin D1 = CDK4-cyclin D1 (Homo sapiens, UniProt P11802); test: Kinase assay (radioactive phosphate incorporation), CDK4-cyclin D1; settings: read-out: Kinase Inhibition pIC50 CDK4-cyclin D1 (converted)
Chain of CDK4-cyclin D1 (P11802 whole entry): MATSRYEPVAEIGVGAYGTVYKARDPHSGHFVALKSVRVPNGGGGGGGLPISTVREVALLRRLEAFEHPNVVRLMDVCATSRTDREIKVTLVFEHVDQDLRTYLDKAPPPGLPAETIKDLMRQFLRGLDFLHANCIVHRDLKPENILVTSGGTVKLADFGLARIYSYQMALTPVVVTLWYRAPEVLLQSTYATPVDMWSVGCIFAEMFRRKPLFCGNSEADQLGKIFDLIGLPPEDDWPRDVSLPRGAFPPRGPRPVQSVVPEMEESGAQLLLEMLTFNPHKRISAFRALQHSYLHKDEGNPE
Chain of CDK4-cyclin D1 (P24385 whole entry partner): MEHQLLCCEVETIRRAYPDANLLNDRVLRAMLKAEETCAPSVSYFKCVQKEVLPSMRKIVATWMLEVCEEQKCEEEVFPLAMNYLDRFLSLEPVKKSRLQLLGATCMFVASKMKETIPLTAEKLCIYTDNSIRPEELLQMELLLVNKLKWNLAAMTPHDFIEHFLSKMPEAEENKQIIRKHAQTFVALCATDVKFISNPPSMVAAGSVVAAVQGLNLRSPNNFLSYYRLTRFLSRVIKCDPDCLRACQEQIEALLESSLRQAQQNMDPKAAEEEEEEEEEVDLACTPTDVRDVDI
Procedure, shortened: as §1

GSK3b = GSK3b (Homo sapiens, UniProt P49841); test: Kinase assay (radioactive phosphate incorporation), GSK-3b; settings: read-out: Kinase Inhibition pIC50 GSK-3b (converted)
Chain of GSK3b (P49841 whole entry, species assumed): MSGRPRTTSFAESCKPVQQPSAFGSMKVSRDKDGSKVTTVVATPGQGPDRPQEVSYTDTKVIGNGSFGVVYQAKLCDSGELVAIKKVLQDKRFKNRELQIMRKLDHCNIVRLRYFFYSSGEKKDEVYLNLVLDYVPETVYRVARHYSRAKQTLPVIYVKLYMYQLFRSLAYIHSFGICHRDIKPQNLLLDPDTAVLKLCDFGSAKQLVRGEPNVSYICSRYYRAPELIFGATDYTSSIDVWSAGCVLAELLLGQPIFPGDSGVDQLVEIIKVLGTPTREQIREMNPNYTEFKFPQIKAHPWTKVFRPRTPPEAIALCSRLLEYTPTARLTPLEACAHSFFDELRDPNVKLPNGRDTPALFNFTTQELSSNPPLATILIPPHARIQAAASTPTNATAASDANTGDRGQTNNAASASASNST
Procedure, shortened: as §1

CDK9/cyclin T1 = CDK9/cyclin T1 (Homo sapiens, UniProt P50750); test: CDK 9 assay (CTD peptide substrate); settings: read-out: Kinase Inhibition pIC50 CDK9-cyclin T1 (converted)
Procedure, shortened: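 Test compounds were incubated with recombinant human kinase/cyclin complex and CTD peptide substrate for 45 min at 30° C (pH 7.2, 100 μM ATP spiked with 32PγATP, 15 mM MgCl2). Reactions were stopped on ice, avidin was added, and phosphorylated peptide was captured on P81 filters and counted by scintillation.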

CDK2-cyclin A = CDK2-cyclin A (Homo sapiens, UniProt P24941); test: Kinase assay (radioactive phosphate incorporation), CDK2-cyclin A; settings: read-out: Kinase Inhibition pIC50 CDK2-cyclin A (converted)
Procedure, shortened: as §1

[6] = target: T6, protein kinases (panel of Table 4) (Homo sapiens, UniProt P24941); test: Kinase selectivity profile, kinase inhibition IC50 (Table 4), ATP 100 μM
T6 construct: other: kinase CDK2A; ATP 100 μM; other: kinase CDK2E
Experimental: as §2

CDK2-cycline E = CDK2-cycline E (Homo sapiens, UniProt P24941); test: Kinase assay (radioactive phosphate incorporation), CDK2-cyclin E; settings: read-out: Kinase Inhibition pIC50 CDK2-cycline E (converted)
Procedure, shortened: as §1

[7] = kinase CDK2A, read-out: Kinase inhibition IC50, CDK2A
[8] = kinase CDK2E, read-out: Kinase inhibition IC50, CDK2E

Chain of CDK1-cyclin B (P06493 whole entry): as the sequence (P06493 whole entry) above
Chain of CDK1-cyclin B (P14635 whole entry partner): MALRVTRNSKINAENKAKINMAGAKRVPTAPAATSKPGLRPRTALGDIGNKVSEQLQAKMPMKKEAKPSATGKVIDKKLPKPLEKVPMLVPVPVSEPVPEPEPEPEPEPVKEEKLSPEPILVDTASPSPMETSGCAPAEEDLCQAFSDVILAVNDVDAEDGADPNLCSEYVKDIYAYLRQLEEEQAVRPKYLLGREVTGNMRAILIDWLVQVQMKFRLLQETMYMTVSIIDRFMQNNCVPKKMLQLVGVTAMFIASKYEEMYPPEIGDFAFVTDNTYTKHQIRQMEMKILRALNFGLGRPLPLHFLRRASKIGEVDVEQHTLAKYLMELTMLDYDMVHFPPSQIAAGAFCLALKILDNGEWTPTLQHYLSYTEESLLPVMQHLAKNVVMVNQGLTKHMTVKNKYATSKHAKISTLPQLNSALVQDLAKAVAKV

| IC50 (CDK1-cyclin B) [nM] | IC50 [1] [nM] | IC50 [2] [nM] | IC50 [3] [nM] | IC50 [4] [nM] | IC50 [5] [nM] | IC50 (CDK4-cyclin D1) [nM] | IC50 (GSK3b) [nM] | IC50 (CDK9/cyclin T1) [nM] | IC50 (CDK2-cyclin A) [nM] | IC50 [6, 7] [nM] | IC50 [6, 8] [nM] | IC50 (CDK2-cycline E) [nM] | SMILES |
| --- | --- | --- | --- | --- | --- | --- | --- | --- | --- | --- | --- | --- | --- |
| – | > 10000 | 390 | > 10000 | 240 | > 10000 | – | 1260 | – | – | > 10000 | 3000 | 3160 | CNc1nc(C)c(-c2ccnc(Nc3ccc(C)c(S(=O)(=O)N4CCOCC4)c3)n2)s1 [Compound 37, [4-(4-Methyl-2-methylamino-thiazol-5-yl)-pyrimidin-2-yl]-[4-methyl-3-(morpholine-4-sulfonyl)-phenyl]-amine] |
| – | 6200 | – | > 10000 | 140 | > 10000 | – | 2000 | 25.1 | – | > 10000 | > 10000 | – | Cc1ccc(Nc2nccc(-c3sc(N)nc3C)n2)cc1S(=O)(=O)N1CCOCC1 [Compound 38, [4-(2-Amino-4-methyl-thiazol-5-yl)-pyrimidin-2-yl]-[4-methyl-3-(morpholine-4-sulfonyl)-phenyl]-amine] |
| 3160 | > 10000 | 240 | 2900 | 110 | > 10000 | 1580 | 501 | 31.6 | 2000 | 2100 | 270 | 251 | COCCNS(=O)(=O)c1cccc(Nc2nccc(-c3sc(N)nc3C)n2)c1 [Compound 55, 3-[4-(2-Amino-4-methyl-thiazol-5-yl)-pyrimidin-2-ylamino]-N-(2-methoxy-ethyl)-benzenesulfonamide] |

Further lines, the compound ahead of its results:

| SMILES | IC50 (CDK1-cyclin B) [nM] | IC50 [1] [nM] | IC50 [2] [nM] | IC50 [3] [nM] | IC50 [4] [nM] | IC50 [5] [nM] | IC50 (CDK4-cyclin D1) [nM] | IC50 (GSK3b) [nM] | IC50 (CDK9/cyclin T1) [nM] | IC50 (CDK2-cyclin A) [nM] | IC50 [6, 7] [nM] | IC50 [6, 8] [nM] | IC50 (CDK2-cycline E) [nM] |
| --- | --- | --- | --- | --- | --- | --- | --- | --- | --- | --- | --- | --- | --- |
| CNc1nc(C)c(-c2ccnc(Nc3cccc(S(N)(=O)=O)c3)n2)s1 [Compound 19, 3-[4-(4-Methyl-2-methylamino-thiazol-5-yl)-pyrimidin-2-ylamino]-benzenesulfonamide] | 200 | 4300 | 36 | 200 | 20 | > 10000 | 15.8 | 158 | 2.51 | – | – | – | – |
| CNc1nc(C)c(-c2ccnc(Nc3cccc(S(C)(=O)=O)c3)n2)s1 [Compound 27, (3-Methanesulfonyl-phenyl)-[4-(4-methyl-2-methylamino-thiazol-5-yl)-pyrimidin-2-yl]-amine] | 251 | > 10000 | 44 | 260 | 260 | > 10000 | 158 | 100 | 1 | 6.31 | 7 | 3 | 3.16 |
| CCNc1nc(C)c(-c2ccnc(Nc3ccc(N4CCNCC4)cc3)n2)s1 [Compound 59, [4-(2-Ethylamino-4-methyl-thiazol-5-yl)-pyrimidin-2-yl]-(4-piperazin-1-yl-phenyl)-amine] | 1000 | 1000 | 46 | 1200 | 16 | > 10000 | 39.8 | – | 100 | 501 | 630 | 150 | 158 |
| Cc1nc(CS(=O)(=O)c2cccs2)sc1-c1ccnc(Nc2ccc(N3CCOCC3)cc2)n1 [Compound 138, {4-[4-Methyl-2-(thiophene-2-sulfonylmethyl)-thiazol-5-yl]-pyrimidin-2-yl}-(4-morpholin-4-yl-phenyl)-amine] | – | – | – | – | – | – | – | – | – | – | – | – | 3980 |
